Data reported in PubChem BioAssay (NCI).
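Where inhibition never reached the appropriate level, the endpoint shown equals the highest concentration tested. Otherwise, values were interpolated linearly from a five-concentration, 48-hour dose response in 96-well plates. TGI: concentration producing complete growth inhibition.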

Columns and labels:
Experiment in all cases: inhibition of tumour cell growth, NCI panel, 48 h
SW-620 colon = test system: SW-620 colon
PC-3 prostate = test system: PC-3 prostate
HOP-62 NSCLC = test system: HOP-62 NSCLC
OVCAR-4 ovarian = test system: OVCAR-4 ovarian
MDA-MB-231 breast = test system: MDA-MB-231 breast
HCC-2998 colon = test system: HCC-2998 colon
COLO 205 colon = test system: COLO 205 colon
HOP-92 NSCLC = test system: HOP-92 NSCLC
NCI-H226 lung = test system: NCI-H226 lung
NCI-H460 lung = test system: NCI-H460 lung
UACC-257 melanoma = test system: UACC-257 melanoma
HS 578T breast = test system: HS 578T breast
OVCAR-3 ovarian = test system: OVCAR-3 ovarian
HCT-15 colon = test system: HCT-15 colon
RXF 393 renal = test system: RXF 393 renal
A498 renal = test system: A498 renal
MCF7 breast = test system: MCF7 breast
SK-OV-3 ovarian = test system: SK-OV-3 ovarian
HL-60(TB) leukemia = test system: HL-60(TB) leukemia
MDA-MB-435 = test system: MDA-MB-435
MOLT-4 leukemia = test system: MOLT-4 leukemia
TK-10 renal = test system: TK-10 renal
SNB-75 CNS = test system: SNB-75 CNS
SF-539 CNS = test system: SF-539 CNS
SN12C renal = test system: SN12C renal
CCRF-CEM leukemia = test system: CCRF-CEM leukemia
K-562 leukemia = test system: K-562 leukemia
SF-295 CNS = test system: SF-295 CNS
LOX IMVI melanoma = test system: LOX IMVI melanoma
HCT-116 colon = test system: HCT-116 colon
ACHN renal = test system: ACHN renal
SK-MEL-5 melanoma = test system: SK-MEL-5 melanoma
IGROV1 ovarian = test system: IGROV1 ovarian
SK-MEL-28 melanoma = test system: SK-MEL-28 melanoma
OVCAR-8 ovarian = test system: OVCAR-8 ovarian
NCI-H23 lung = test system: NCI-H23 lung
MDA-N = test system: MDA-N
T-47D breast = test system: T-47D breast
HT29 colon = test system: HT29 colon
SNB-19 CNS = test system: SNB-19 CNS
MALME-3M melanoma = test system: MALME-3M melanoma
SF-268 CNS = test system: SF-268 CNS
UACC-62 melanoma = test system: UACC-62 melanoma
M14 melanoma = test system: M14 melanoma
U251 CNS = test system: U251 CNS
NCI-H522 lung = test system: NCI-H522 lung
BT-549 breast = test system: BT-549 breast
EKVX NSCLC = test system: EKVX NSCLC
RPMI-8226 leukemia = test system: RPMI-8226 leukemia
SK-MEL-2 melanoma = test system: SK-MEL-2 melanoma
DU-145 prostate = test system: DU-145 prostate
KM12 colon = test system: KM12 colon
OVCAR-5 ovarian = test system: OVCAR-5 ovarian
NCI/ADR-RES ovarian = test system: NCI/ADR-RES ovarian
A549 NSCLC = test system: A549 NSCLC
786-0 renal = test system: 786-0 renal
UO-31 renal = test system: UO-31 renal
CAKI-1 renal = test system: CAKI-1 renal

Measured: TGI

CN(C)C(C1=C(O)C(c2ccccc2)N(c2ccccc2)C1=O)N1CCOCC1 (stereo not drawn)
> 10 µM: SW-620 colon | PC-3 prostate | HOP-62 NSCLC | OVCAR-4 ovarian | MDA-MB-231 breast | HCC-2998 colon | COLO 205 colon | HOP-92 NSCLC | NCI-H226 lung | NCI-H460 lung | UACC-257 melanoma | HS 578T breast | OVCAR-3 ovarian | HCT-15 colon | RXF 393 renal | A498 renal | MCF7 breast | SK-OV-3 ovarian | HL-60(TB) leukemia | MDA-MB-435 | MOLT-4 leukemia | TK-10 renal | SNB-75 CNS | SF-539 CNS | SN12C renal | CCRF-CEM leukemia | K-562 leukemia | SF-295 CNS | LOX IMVI melanoma | HCT-116 colon | ACHN renal | SK-MEL-5 melanoma | IGROV1 ovarian | SK-MEL-28 melanoma | OVCAR-8 ovarian | NCI-H23 lung | MDA-N | T-47D breast | HT29 colon | SNB-19 CNS | MALME-3M melanoma | SF-268 CNS | UACC-62 melanoma | M14 melanoma | U251 CNS | NCI-H522 lung | BT-549 breast | EKVX NSCLC | RPMI-8226 leukemia | SK-MEL-2 melanoma | DU-145 prostate | KM12 colon | OVCAR-5 ovarian | NCI/ADR-RES ovarian | A549 NSCLC | 786-0 renal | UO-31 renal | CAKI-1 renal
